Key:
[1] = test system: Neonatal human dermal fibroblasts; assay: Procollagen I production by fibroblasts (dot blot); type: cell-based; conditions: 50 μg; for Procollagen 1 production: densitometer reading
Description: This example measured production of procollagen I by fibroblasts in response to treatment with various test compounds.
Methodology for determination of (Pro) Collagen-I protein expression using Dot Blot technique:
Neonatal human dermal fibroblasts (passage 4 to 8) were purchased from Clonetics Corp. San Diego, Calif. All materials for cell culture were purchased from Life technologies, New York and used in passages 5-10. Cells were seeded at a density of approximately 7,500/well in the inner 48 wells of a 96-well plate in DMEM (Dulbecco's Modified Eagle's Medium), high glucose supplemented with 2 mM L-glutamine, 10% fetal bovine serum, and antibiotic and. antimycotic solutions. Cells were grown to confluence and washed with serum free, phenol red free DMEM and cells dosed with 200 μl actives in media. Each dosing was replicated in a total of six to twelve wells. After 24 hours, the test compound solution or the control solution was removed and cells re-dosed with 100 μl actives in media. After 24 hours incubation, remove media and store at 4° C. with protease inhibitor (Aprotinin 1:200) until further use. The test compound solution was then diluted in 1X Tris buffered saline (pH=8) buffer (approximately 20 μl media in 200 μl buffer).
PVDF membrane soaked in methanol and 2 filter papers in 1X TBS (pH=8). Bio-Rad dot blot apparatus was set up with filter paper on bottom, membrane on top, tighten, added 100 μl TBS per well. Vacuum dry. Vortex or mix, then load 100 μl diluted sample per well; let it sit for 15 minutes and then vacuum dry. Remove membrane from the apparatus, cut off excess, and notch bottom right comer for orientation. Place membrane in blocking buffer (5% milk powder in 1X TBS-Tween) for 1 hour at room temperature with shaking. […] Remove membrane, do a 10 minute wash three to five times in TBS/0.1% Tween. Incubate for 1 hour at RT or O/N at 4° C. in 5 ml 1:1000 anti-rat conjugated alkaline phosphatase (AP) secondary antibody in 1-% milk in TBS-T in a sealed bag with shaking. Wash membrane for 15 minutes five to eight times with TBS-T, and final rinse with 1X PBS. The membrane was developed using Chemiluminiscent substrate (Boehringer Mannheim, Ind.) and results were analysed using a laser densitometer (Bio-Rad instrument). Fold increase was calculated as a ratio of densitometer reading for cells treated with a test compound over control.

human sebocytes = assay: Sebum secretion by sebocytes (14C-acetate incorporation); type: cell-based; conditions: 0.001%
Description: This example investigated the effect of red yeast rice on sebum secretion by sebocytes. Secondary cultures of human sebocytes obtained from an adult […] were grown in 48-well tissue culture plates (Costar Corp.; Cambridge, Mass.) until confluent. Sebocyte growth medium consisted of Clonetics Keratinocyte Basal Medium (KBM) supplemented with 14 μg/ml bovine pituitary extract, 0.4 μg/ml hydrocortisone, 5 μg/ml insulin, 10 ng/ml epidermal growth factor, 1.2×10−10 M cholera toxin, 100 units/ml penicillin, and 100 μg/ml streptomycin. All cultures were incubated at 37° C. in the presence of 7.5% CO2. Medium was changed three times per week. On the day of experimentation, the growth medium was removed and the sebocytes washed three times with sterile Dulbecco's Modified Eagle Medium (DMEM; phenol red free). Fresh DMEM was added to each sample (triplicates in Table 4 and duplicated in Table 5) with 5 microliter of test agent solubilized in ethanol. Controls consisted of addition of ethanol alone. Each plate was returned to the incubator for 20 hours followed by the addition of 14C-acetate buffer (5 mM final concentration, 56 mCi/mmol specific activity). […] Radioactive label remaining in the sebocytes was harvested and counted using a Beckman scintillation counter. […]

[2] = test system: Cellular Retinoic Acid Binding Protein 2 (CRABP-2) in human adult fibroblasts; assay: CRABP-2 production by fibroblasts (Western blot); type: cell-based; conditions: 10e-6M retinoid alone, 48 hours
Description: This example investigated the effect of various tested compounds on CRABP-2 production by fibroblasts.
Human adult fibroblasts obtained from su n-protected inner arm of 25-30 year […] volunteer were used in this. Cells were grown in 1:1 DMEM/Hams F12 media containing 10% FBS, maintained at 37° C. in a 5% CO2 atmosphere under normal atmospheric oxygen tension. Third passage adult fibroblasts were grown in DMEM media with 10% FBS in 12-well plates at a seeding density of 2500 cells/ml/well. The cells at 80% confluence were rinsed in serum free and phenol red free (PRF) DMEM media twice. Pre-treatment with test compound for 4 hours was conducted and then dosed with retinoids and was incubated for 48 hours.
After the incubation, the wells were was ed twice with 1X PBS and the cell monolayer was harvested in 100 μl cell lysis buffer (contains 1X PBS, 1% TritonX, 0.5% sodium deoxycholate, 0.1% SDS containing p tease inhibitor (10 mg/ml PMSF in isopropanol, 10 μl/ml). The suspension was spun at 14000 rpm for 10 minutes, the supernatant collected and an aliquot of this supematant was used for protein quantification. Protein concentration was determined using Pierce protein kit. The remainder of 100 μl supernatant (cell lysate) was denatured in a mixture of 40 μl sample buffer (NOVEX) and 0.5% Beta mercaptoethanol (IBME) and by boiling the sample for 5 minutes. Equal amount of protein was then loaded onto 16% Tris-glycine gels for protein analysis by SDS page and Western Immuno-blotting for CRABP-2 protein expression.
The gels were run and transferred to nitrocellulose blots and Western Blotting was carried out using monoclonal antibodies to CRABP-2 according to standard procedures. The CRABP-2 protein band was visualized in the Western Blots using the chemiluminescence system obtained from Santa Cruz Biotechnology (SantaCruz, Calif.). The bands in the film were quantitated by densitometric scanning, the-data from triplicate samples were calculated as % of control and expressed in the following tables as % increase over control (with control as 100%) +/−SD of triplicates.

ZR75 cells = assay: Assay for estrogen like activity: [methyl-3H] thymidine incorporation in ZR75 cells; type: cell-based, human; conditions: 0.27 × 10^−6% (10 nM)
Description: The ZR75 cell line is a ductal breast carcinoma cell line, originally isolated from malignant mammary epithelium of a person (10). The chromosome number is triploid and the trypsin-Giemsa banding patterns indicate a unique karyotype distinct from HeLa cells. While containing receptors for estrogen, insulin, progesterone and other hormones, ZR75 cells only respond through an increase in proliferation to estrogen and insulin. The cell line contains high affinity estrogen-specific receptors. Therefore, this cell line is used for testing estrogen-like activity.
The cells are split 1:2 once every week and seeded in 24 well plates at one hundred thousand cells per milliliter per well for the assay.
After growing for twenty-four hours, the media was removed, the cells were washed with PBS and one ml of RPMI 1640 without serum was readded. Different dilutions of the red yeast rice extract were then dosed directly into each well. After another twenty-four hours, one microCurie of [methyl-3H] thymidine was added to the media in each well. The media was removed after twenty-four hours to begin the thymidine uptake assay. […] The samples were transferred to scintillation vials and after adding five milliliters of counting fluid (scintiverse), the vials were counted for five minutes each on a setting for tritium. […] Data was calculated as % of control to normalize for experiment-to-experiment variation.

| Compound | Procollagen 1 production % of Control [1] | Procollagen 1 production [1] | CRABP-2 % of Control [2] | CRABP-2 OD +/− SD [2] | also measured |
| --- | --- | --- | --- | --- | --- |
| CCCCCCCCCCCCCCCC(=O)OC[C@H](O)[C@H]1OC(=O)C(O)=C1O [Ascorbyl Palmitate, ascorbyl palmitate] | 103 +/− 48% | 0.775 +/− 0.36 |  |  |  |
| O=S1(=O)OC(c2ccc(O)cc2)(c2ccc(O)cc2)c2ccccc21 [Phenol Red] |  |  |  |  | % Reduction (sebum, 14C-acetate label) (human sebocytes; first Table 4 (triplicates)): 83.4%; % Reduction (sebum, 14C-acetate label) (human sebocytes; second table, printed as Table 4 (Table 5, duplicates)): 83.4% |
| CC1=C(/C=C/C(C)=C/C=C/C(C)=C/CO)C(C)(C)CCC1 [Retinol] |  |  | 153 +/− 5% | 1.91 +/− 0.06 OD |  |
| CC(=O)OC/C=C(C)/C=C/C=C(C)/C=C/C1=C(C)CCCC1(C)C [Retinyl Acetate] |  |  | 398 +/− 157% | 3.86 +/− 0.28 OD |  |
| CCCCCCCCCCCCCCCC(=O)OC/C=C(C)/C=C/C=C(C)/C=C/C1=C(C)CCCC1(C)C [Retinyl palmitate] |  |  | 178 +/− 33% | 2.00 +/− 0.04 OD |  |
| C[C@]12CC[C@@H]3c4ccc(O)cc4CC[C@H]3[C@@H]1CC[C@@H]2O [Estradol, estradiol] |  |  |  |  | cpm +/− SD (thymidine incorporation) (ZR75 cells): 263982 +/− 711 cpm; activity at 0.01 µM (ZR75 cells; Homo sapiens, ZR75, read-out: thymidine incorporation % of control): 224% |
| O=C1O[C@H]([C@@H](O)CO)C(O)=C1O [Vitamin C] | 175 +/− 37% | 1.311 +/− 0.28 |  |  |  |
| O=C1O[C@H]([C@@H](O)CO)C([O-])=C1OP(=O)([O-])[O-].[Na+].[Na+].[Na+] [Sodium ascorbyl phosphate, sodium ascorbyl phosphate] | 116 +/− 27% | 0.871 +/− 0.2 |  |  |  |
| CCCCC/C=C\C/C=C\CCCCCCCC(=O)OC/C=C(C)/C=C/C=C(C)/C=C/C1=C(C)CCCC1(C)C [Retinyl linoleate] |  |  | 156 +/− 13% | 1.96 +/− 0.16 OD |  |

— patent US6395281B1, “Cosmetic skin conditioning compositions containing red yeast rice extract” (Unilever Home & Personal Care USA, a division of Conopco, …, priority 1999, dated 2002)
